For data set [1], the target named is T1, hERG potassium channel (Homo sapiens, UniProt Q12809).
Data set [2] addresses T1, hERG potassium channel. The data set is described as follows: in vitro.
Data set [3] concerns the target T1, hERG potassium channel. In words: cell-based.
The next data set has as its target T2, CYP1A2 (Homo sapiens, UniProt P05177).
T2 construct: purchased
T2 sequence (P05177 1-516): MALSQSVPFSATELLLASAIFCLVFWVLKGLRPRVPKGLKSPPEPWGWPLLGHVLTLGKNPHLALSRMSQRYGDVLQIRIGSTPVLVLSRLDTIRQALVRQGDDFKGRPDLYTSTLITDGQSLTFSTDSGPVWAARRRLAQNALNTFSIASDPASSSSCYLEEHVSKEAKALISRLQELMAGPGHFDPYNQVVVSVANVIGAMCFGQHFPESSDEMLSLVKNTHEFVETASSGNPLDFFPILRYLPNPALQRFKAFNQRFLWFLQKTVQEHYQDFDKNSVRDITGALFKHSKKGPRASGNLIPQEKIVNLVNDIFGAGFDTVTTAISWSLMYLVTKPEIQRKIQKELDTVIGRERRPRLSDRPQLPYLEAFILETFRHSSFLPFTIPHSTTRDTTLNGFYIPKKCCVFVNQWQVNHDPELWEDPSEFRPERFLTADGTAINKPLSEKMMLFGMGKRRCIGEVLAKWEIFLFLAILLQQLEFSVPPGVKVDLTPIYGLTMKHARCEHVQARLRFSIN
The data set is described as follows: CYP enzyme inhibition test, P450-Glo CYP1A2 Screening System. It counts as in vitro ADME. As to conditions: for inhibitory effect on CYP1A2: conclusion in words. The procedure:
Experimental Example 6: CYP Enzyme Inhibition Test CYP450 is the most important enzyme system in drug metabolism. The enzymes involved in metabolism interact with drugs, and the most important ones are CYP1A2, CYP2D6 and CYP3A4. P450-Glo™ CYP1A2 Screening System, Vivid® CYP2D6 Cyan Screening Kit and Vivid® CYP3A4 Red Screening Kit were used in this test, and the inhibitory effects of the compounds on CYP1A2, CYP2D6 and CYP3A4 were determined according to the instructions of the kit.

In general, inhibition refers to the share of the control response that was lost under treatment. Read a low inhibition as a weak effect. What is called IC50 is the concentration at which inhibition is half-maximal. A higher IC50 goes with weaker potency.

Structures are written as SMILES. Bounds are passed on as bounds.

T1 sequence (Q12809 whole entry): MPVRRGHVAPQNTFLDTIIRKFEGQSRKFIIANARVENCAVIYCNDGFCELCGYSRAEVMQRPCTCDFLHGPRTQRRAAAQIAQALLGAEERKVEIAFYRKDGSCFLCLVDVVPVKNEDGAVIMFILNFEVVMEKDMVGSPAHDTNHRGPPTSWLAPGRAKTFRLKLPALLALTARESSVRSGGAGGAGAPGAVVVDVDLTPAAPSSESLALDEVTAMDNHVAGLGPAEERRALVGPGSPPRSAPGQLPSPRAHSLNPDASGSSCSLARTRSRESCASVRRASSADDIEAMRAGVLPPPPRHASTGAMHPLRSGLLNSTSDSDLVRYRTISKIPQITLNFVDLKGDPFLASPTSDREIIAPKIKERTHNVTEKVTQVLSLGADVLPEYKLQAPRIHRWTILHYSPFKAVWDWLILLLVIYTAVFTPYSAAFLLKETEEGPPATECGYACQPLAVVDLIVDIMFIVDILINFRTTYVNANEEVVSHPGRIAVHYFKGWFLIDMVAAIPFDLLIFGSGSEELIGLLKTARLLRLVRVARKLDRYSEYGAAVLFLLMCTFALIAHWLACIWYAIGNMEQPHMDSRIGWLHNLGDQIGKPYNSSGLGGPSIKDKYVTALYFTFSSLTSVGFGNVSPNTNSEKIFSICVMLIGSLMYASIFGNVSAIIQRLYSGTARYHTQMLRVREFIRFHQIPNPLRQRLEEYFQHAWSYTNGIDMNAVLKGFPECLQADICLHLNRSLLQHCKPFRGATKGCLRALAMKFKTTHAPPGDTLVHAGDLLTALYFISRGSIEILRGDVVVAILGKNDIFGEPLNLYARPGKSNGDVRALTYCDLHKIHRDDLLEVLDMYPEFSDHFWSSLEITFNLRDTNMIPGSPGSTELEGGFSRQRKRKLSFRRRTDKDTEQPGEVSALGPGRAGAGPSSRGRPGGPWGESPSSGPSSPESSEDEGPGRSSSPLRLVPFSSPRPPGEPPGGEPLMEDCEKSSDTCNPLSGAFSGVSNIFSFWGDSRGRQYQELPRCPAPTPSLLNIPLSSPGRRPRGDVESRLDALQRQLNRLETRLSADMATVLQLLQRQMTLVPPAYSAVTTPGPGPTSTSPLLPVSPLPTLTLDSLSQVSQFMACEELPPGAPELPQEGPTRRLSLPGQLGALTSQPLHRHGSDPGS

For the compound `Nc1cc(N[C@@H]2CC[C@@H](O)C2)c2sc(-c3ccn[nH]3)cc2n1` [Compound 30, (1R,3R)-3-((5-amino-2-(1H-pyrazol-5-yl)thieno[3,2-b]pyridin-7-yl)amino)cyclopentanol], the “inhibitory effect on hERG” value against hERG potassium channel [1] is given as “no apparent inhibitory effect”. The compound further had an inhibition at 10 μM against hERG potassium channel [2] of 1.91 ± 1.4%. This compound yielded an IC50 against hERG potassium channel [3] of more than 10 µM.

Regarding `C[C@@H]1CN(CCNc2cc(N)nc3cc(-c4ccn[nH]4)sc23)C[C@@H](C)O1` [Compound 124, N^7-(2-((2R,6R)-2,6-dimethylmorpholino)ethyl)-2-(1H-pyrazol-5-yl)thieno[3,2-b]pyridine-5,7-diamine], at CYP1A2, the IC50 was more than 10 µM and the “inhibitory effect on CYP1A2” value was “no apparent inhibitory effects”.

For `C[C@@H](CCO)Nc1cc(N)nc2cc(-c3ccn[nH]3)sc12` [Compound 125, (S)-3-((5-amino-2-(1H-pyrazol-5-yl)thieno[3,2-b]pyridin-7-yl)amino)butanol], at CYP1A2, the IC50 was more than 10 µM and the “inhibitory effect on CYP1A2” value is recorded as “no apparent inhibitory effects”.

These data come from patent US20220056043A1, “NITROGEN-CONTAINING FUSED CYCLIC COMPOUND, PREPARATION METHOD THEREFOR AND USE THEREOF” (SICHUAN KELUN-BIOTECH BIOPHARMACEUTICAL CO., LTD., priority 2019, published 2022).
